Patent publication US8476197B2, “Aminopropenoates as fungicides” (priority 2009, dated 2013)
Read-outs that look alike come from different tables or passages of the source. Marks after values point to notes of the source that are not given here.

SMILES | Log P (pH 2.7) | Log P (pH 2.3) | Log P (pH 7.5)
C=CCNC(=O)C(C#N)=C(NC(C)c1ccccn1)c1cn(C)nc1C(F)F (racemic) [Compound 1291] | 2.02^[a] | – | –
C=CCNC(=O)C(C#N)=C(NC(C)c1nccs1)c1cn(C)nc1C(F)F (racemic) [Compound 1292] | 2.2^[a] | – | –
CCNC(=O)C(C#N)=C(NC(C)c1ccccn1)c1cn(C)nc1C(F)F (racemic) [Compound 1293] | 1.86^[a] | – | –
CCNC(=O)C(C#N)=C(NC(C)c1nccs1)c1cn(C)nc1C(F)F (racemic) [Compound 1294] | 2.05^[a] | – | –
CC#CC(C)NC(=C(C#N)C(=O)OCC)c1ccnc(Cl)c1Cl (racemic) [Compound 1386] | 3.44^[a] | – | –
CCOC(=O)C(C#N)=C(NC(C)c1ncc(C)s1)c1ccnc(Cl)c1Cl (racemic) [Compound 1389] | 3.33^[a] | – | –
CCCC(C)NC(=C(C#N)C(=O)OCC)c1ccnc(Cl)c1Cl (racemic) [Compound 1390] | 3.99^[a] | – | –
CCOC(=O)C(C#N)=C(NC(C)c1ccccn1)c1ccnc(Br)c1Cl (racemic) [Compound 1391] | 3.09^[a] | – | –
CCOC(=O)C(C#N)=C(NC(C)c1ccccn1)c1ccnc(SC)c1Cl (racemic) [Compound 1393] | 3.35^[a] | – | –
CCOC(=O)C(C#N)=C(NC(C)c1ccccn1)c1ccncc1C(F)(F)F (racemic) [Compound 1394] | 2.7^[a] | – | –
CCOC(=O)C(C#N)=C(NC(C)c1ccccn1)c1ccnc(Br)c1F (racemic) [Compound 1395] | 3^[a] | – | –
CCOC(=O)C(C#N)=C(NC(C)c1ccccn1)c1ccnc(CC)c1Cl (racemic) [Compound 1396] | 2.96^[a] | – | –
CCCc1nccc(C(NC(C)c2ccccn2)=C(C#N)C(=O)OCC)c1Cl (racemic) [Compound 1397] | 3.29^[a] | – | –
CCOC(=O)C(C#N)=C(NC(C)c1ccccn1)c1ccnc(-c2ccccc2)c1Cl (racemic) [Compound 1398] | 3.33^[a] | – | –
CCOC(=O)C(C#N)=C(NC(C)c1ccccn1)c1ccnc(Cl)c1Br (racemic) [Compound 1404] | 3.06^[a] | – | –
CCOC(=O)C(C#N)=C(NC(C)c1nccs1)c1ccnc(Cl)c1Br (racemic) [Compound 1406] | 2.96^[a] | – | –
C#CCNC(=O)C(C#N)=C(NC(C)c1ccccn1)c1cn(C)nc1C(F)F (racemic) [Compound 1407] | 1.89^[a] | – | –
CCOC(=O)C(C#N)=C(NC(C)c1ccccn1)c1ccnc(Br)c1Br (racemic) [Compound 1409] | 3.11^[a] | – | –
CCNC(=O)C(C#N)=C(NC(C)c1ccccn1)c1ccnc(Cl)c1Br (racemic) [Compound 1411] | 2.55^[a] | – | –
CCOC(=O)C(C#N)=C(NC(C)c1cnccn1)c1cccnc1Cl (racemic) [Compound 1415] | 2.13^[a] | – | –
CCOC(=O)C(C#N)=C(NC(C)C(C)OC)c1scnc1Cl (racemic) [Compound 1480] | 2.94^[a] | – | –
CCOC(=O)C(C#N)=C(NC(C)C(C)CC)c1scnc1Cl (racemic) [Compound 1481] | 3.92^[a] | – | –
CCOC(=O)C(C#N)=C(NC(C)c1nccs1)c1cnn(C)c1Cl (racemic) [Compound 1483] | 2.42^[a] | – | –
CCOC(=O)C(C#N)=C(NC(C)c1ccccn1)c1cnn(C)c1Cl (racemic) [Compound 1484] | 2.35^[a] | – | –
CCOC(=O)C(C#N)=C(NC(C)c1ccccn1)c1ccnc2ccccc12 (racemic) [Compound 1497] | 2.5^[a] | – | –
CCOC(=O)C(C#N)=C(NC(C)C1CC1)c1ccnc2ccccc12 (racemic) [Compound 1500] | 3.02^[a] | – | –

SMILES | Log P (pH 2.7) | Log P (pH 2.3) | Log P (pH 7.5)
C=CCOc1ncccc1C(NC(C)c1nccs1)=C(C#N)C(=O)OCC (racemic) [Compound 1506] | – | 2.03^[c]; 2.03^[b] | 2.03^[c]; 2.03^[b]
CCOC(=O)C(C#N)=C(NC(c1cncnc1C)C(C)C)c1cccnc1Cl (racemic) [Compound 1538] | 2.28^[a] | – | –
CCOC(=O)C(C#N)=C(NC(C)c1nccs1)c1cccnc1Br (racemic) [Compound 1547] | – | – | 2.44
CCOC(=O)C(C#N)=C(NC(C)c1nc2c(s1)CCCC2)c1cccnc1Cl (racemic) [Compound 1548] | 3.21^[a] | – | –
CCOC(=O)C(C#N)=C(NC(c1ccccn1)C(F)(F)F)c1cccnc1Cl (racemic) [Compound 1549] | 3.17^[a] | – | –
CCOC(=O)C(C#N)=C(NC(C)c1nc(C)sc1C)c1cccnc1Cl (racemic) [Compound 1552] | 2.84^[a] | – | –
CCOC(=O)C(C#N)=C(NC(c1cncnc1C(F)(F)F)C(C)C)c1cccnc1Cl (racemic) [Compound 1557] | 3.55^[a] | – | –
CCOC(=O)C(C#N)=C(NC(C)c1cc(Cl)ccc1Cl)c1cccnc1Cl (racemic) [Compound 1558] | 4.13^[a] | – | –
CCOC(=O)C(C#N)=C(NC(C)C1CC1)c1cn(C)nc1C(Cl)Cl (racemic) [Compound 1560] | 3.23^[a] | – | –
CCOC(=O)C(C#N)=C(NC(C)C1CCC1)c1cn(C)nc1C(Cl)Cl (racemic) [Compound 1561] | 3.67^[a] | – | –
CC(NC(=C(C#N)C(=O)NCCF)c1cccnc1Cl)c1nccs1 (racemic) [Compound 1563] | 2^[a] | – | –
CCOC(=O)C(C#N)=C(NC(C)c1ccccn1)c1cn(C)nc1C(Cl)Cl (racemic) [Compound 1565] | 2.7^[a] | – | –
CCOC(=O)C(C#N)=C(NC(C)c1nc(C)cs1)c1sccc1Br (single isomer, unassigned) [Compound 167] | 3.44^[a] | – | –
CCOC(=O)C(C#N)=C(NC(C)c1cccc2ccccc12)c1nc(Cl)ccc1Cl (centres unmarked) [Compound 1] | 4.4^[a] | – | –
CCOC(=O)C(C#N)=C(NC(C)c1cccc2ccccc12)c1ncc(Cl)cc1Cl (centres unmarked) [Compound 2] | 4.65^[a] | – | –
CCOC(=O)C(C#N)=C(NC(C)c1cccc2ccccc12)c1cnc(Cl)cc1Cl (centres unmarked) [Compound 3] | 4.4^[a] | – | –
CCOC(=O)C(C#N)=C(NC(C)c1nccs1)c1cccnc1Cl (centres unmarked) [Compound 6] | 2.58 | – | –
CCOCCOC(=O)C(C#N)=C(NC(C)c1nccs1)c1cccnc1Cl (centres unmarked) [Compound 12] | – | – | 2.4
COC(=O)C(C#N)=C(NCc1ncccn1)c1cccnc1Cl [Compound 13] | – | 1.57^[c]; 1.57^[b] | 1.57^[c]; 1.57^[b]
COC(=O)C(C#N)=C(NCC1OCCO1)c1cccnc1Cl [Compound 14] | – | 1.79 | 1.77
COC(=O)C(C#N)=C(NC(C)c1nc2ccccc2s1)c1cccnc1Cl (centres unmarked) [Compound 15] | – | – | 2.95
COC(=O)C(C#N)=C(NCC1CCCO1)c1cccnc1Cl (centres unmarked) [Compound 16] | – | – | 2.03
COC(=O)C(C#N)=C(NC(C)c1nccs1)c1sc(C)nc1C(F)(F)F (centres unmarked) [Compound 17] | 2.78 | 2.66 | 2.63
COC(=O)C(C#N)=C(NC(C)c1nccs1)c1sccc1Cl (centres unmarked) [Compound 18] | – | 2.61 | 2.59
COC(=O)C(C#N)=C(NC(C)c1nc(C)c(C)s1)c1cccnc1Cl (centres unmarked) [Compound 19] | – | – | 2.69
COC(=O)C(C#N)=C(NCC1CCCS1)c1cccnc1Cl (centres unmarked) [Compound 20] | – | 2.63 | 2.47

SMILES | Log P (pH 2.7) | Log P (pH 2.3) | Log P (pH 7.5)
COC(=O)C(C#N)=C(NC(C)c1nccs1)c1cccnc1Br (centres unmarked) [Compound 21] | – | – | 2.12
COC(=O)C(C#N)=C(NC1CCSC1)c1cccnc1Cl (centres unmarked) [Compound 22] | – | 2.4 | 2.23
CC(C)OC(=O)C(C#N)=C(NC(C)c1nccs1)c1cccnc1Cl (centres unmarked) [Compound 23] | – | – | 2.7
CCOC(=O)C(C#N)=C(NC(C)c1nccs1)c1ccc(C)nc1Cl (centres unmarked) [Compound 24] | – | – | 2.62
CC(NC(=C(C#N)C(=O)OC(C)(C)C)c1cccnc1Cl)c1nccs1 (centres unmarked) [Compound 25] | – | – | 3.07
COC(=O)C(C#N)=C(NC(C)c1sc(C)nc1C)c1cccnc1Cl (centres unmarked) [Compound 26] | – | – | 2.17
CC(C)COC(=O)C(C#N)=C(NC(C)c1nccs1)c1cccnc1Cl (centres unmarked) [Compound 28] | – | – | 3.13
CC(C)OC(=O)C(C#N)=C(NC(C)c1nc2ccccc2s1)c1cccnc1Cl (centres unmarked) [Compound 29] | – | – | 3.63
CC(NC(=C(C#N)C(=O)OCC(F)(F)F)c1cccnc1Cl)c1nccs1 (centres unmarked) [Compound 30] | – | – | 2.67
CCOC(=O)C(C#N)=C(NCc1ccccn1)c1cn(C)nc1C(F)F [Compound 32] | 1.94^[a] | – | –
CCOC(=O)C(C#N)=C(NCc1ccccn1)c1c(C)nn(C)c1F [Compound 39] | 1.91^[a] | – | –
CCOC(=O)C(C#N)=C(NCc1ccccn1)c1ncc(C(F)(F)F)cc1Cl [Compound 42] | 2.98^[a] | – | –
COC(=O)C(C#N)=C(NCc1ccccn1)c1cn(C)nc1C(F)F [Compound 58] | 1.63^[a] | – | –
CCOC(=O)C(C#N)=C(NC(C)c1nc(C)c(C)s1)c1cn(C)nc1C(F)(F)F (centres unmarked) [Compound 64] | 3.48^[a] | – | –
CCOC(=O)C(C#N)=C(NC(C)Cc1c[nH]c2ccccc12)c1cn(C)nc1C(F)(F)F (centres unmarked) [Compound 65] | 3.73^[a] | – | –
CCOC(=O)C(C#N)=C(NCc1nccs1)c1cccnc1Cl [Compound 66] | 2.07^[a] | – | –
COC(=O)C(C#N)=C(NCc1nccs1)c1cn(C)nc1C(F)F [Compound 67] | 1.72^[a] | – | –
CCOC(=O)C(C#N)=C(NCc1nccs1)c1cn(C)nc1C(F)F [Compound 68] | 2^[a] | – | –
CCOC(=O)C(C#N)=C(NC(c1cc2ccccc2s1)C(F)(F)F)c1nsc(Cl)c1Cl (centres unmarked) [Compound 69] | 5.11^[a] | – | –
CCOC(=O)C(C#N)=C(NCc1ccccn1)c1nsc(Cl)c1Cl [Compound 70] | 2.84^[a] | – | –
CCOC(=O)C(C#N)=C(NC(C)c1ccccn1)c1nsc(Cl)c1Cl (centres unmarked) [Compound 71] | 3.35^[a] | – | –
CCOC(=O)C(C#N)=C(NC(C)c1nccs1)c1ccc(Cl)nc1Cl (centres unmarked) [Compound 72] | – | – | 3.01
CCOC(=O)C(C#N)=C(NC(c1cc2ccccc2s1)C(F)(F)F)c1ncc(C(F)(F)F)cc1Cl (centres unmarked) [Compound 73] | 4.94^[a] | – | –
CCOC(=O)C(C#N)=C(NC(C)c1nc(C)c(C)s1)c1conc1C (centres unmarked) [Compound 74] | 3.02^[a] | – | –
CCOC(=O)C(C#N)=C(NCc1nccs1)c1ncc(C(F)(F)F)cc1Cl [Compound 75] | 2.84^[a] | – | –
CCOC(=O)C(C#N)=C(NCc1nccs1)c1conc1C [Compound 76] | 2.04^[a] | – | –
